# Measurements as given in patent US11083729B2, “Methods of treating cancer with small molecule NF-κB inhibitors” (ImmuneTarget, Inc., priority 2017, dated 2021).
# Target: T1, c-Rel protein (Homo sapiens, UniProt Q04864)
# T1 sequence (Q04864 1-619): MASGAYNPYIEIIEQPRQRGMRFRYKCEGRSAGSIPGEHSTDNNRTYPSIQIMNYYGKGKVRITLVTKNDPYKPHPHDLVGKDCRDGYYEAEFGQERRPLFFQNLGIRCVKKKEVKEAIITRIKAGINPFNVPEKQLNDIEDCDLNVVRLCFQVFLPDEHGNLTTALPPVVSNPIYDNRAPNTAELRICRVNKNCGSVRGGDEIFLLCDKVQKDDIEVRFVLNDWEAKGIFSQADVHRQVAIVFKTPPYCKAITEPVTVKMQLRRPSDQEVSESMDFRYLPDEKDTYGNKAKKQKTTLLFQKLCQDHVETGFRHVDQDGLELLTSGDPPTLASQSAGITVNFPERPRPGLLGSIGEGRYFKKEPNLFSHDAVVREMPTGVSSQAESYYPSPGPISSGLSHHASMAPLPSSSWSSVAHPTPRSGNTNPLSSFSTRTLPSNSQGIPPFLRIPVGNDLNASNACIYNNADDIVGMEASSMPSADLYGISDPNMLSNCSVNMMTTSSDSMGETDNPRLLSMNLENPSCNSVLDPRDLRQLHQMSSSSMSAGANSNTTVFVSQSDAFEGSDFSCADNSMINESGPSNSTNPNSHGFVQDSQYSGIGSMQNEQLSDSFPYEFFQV
# Experiment: Electrophoretic Mobility Shift Assay (EMSA), c-Rel binding to CD28RE oligonucleotide
# Conditions: 10 nM c-Rel protein
# Description: DNA binding reaction (20 μL) was carried out in 1×DNA Binding Buffer (10 mM Tris, 40 mM NaCl, 1 mM EDTA, 4% glycerol) with 10 nM c-Rel protein and 0.5 ng phosphor-labeled CD28RE oligonucleotide for 10 minutes at room temperature in 96-well plates. Test compounds, in serial dilutions, were added into each well, and further incubated for 15 minutes before loading onto native 5% polyacrylamide gel. Electrophoresis proceeded for 2.5 hours at 160V. Radioactive signals were quantified using Phospho-Imager. IC50 of compounds of example 1 to 75 were determined by quantifying the intensity of Rel/NF-κB inhibition in EMSA using phospho-imager. An example of EMSA data of the present invention is shown for compound 6 in FIG. 2.
row,SMILES,IC50
1,"CCCCn1c(=O)nc2oc3cc(OCC)c(Cl)cc3cc-2c1=O [compound 26, 3-butyl-7-chloro-8-ethoxy-2H-chromeno[2,3-d]pyrimidine-2,4(3H)-dione]",< 1000 nM
2,CCCCCCCOc1ccc2cc3c(=O)[nH]c(=O)nc-3oc2c1F [compound 52],< 500 nM
3,CCCCOc1cc2oc3nc(=O)[nH]c(=O)c-3cc2cc1F [compound 29],< 500 nM
4,"COc1cc(Cl)cc2cc3c(=O)[nH]c(=O)nc-3oc12 [compound 3, 7-chloro-9-methoxy-2H-chromeno[2,3-d]pyrimidine-2,4(3H)-dione]",< 2000 nM
5,"CCCCCCOc1ccc2cc3c(=O)[nH]c(=O)nc-3oc2c1 [compound 21, 8-(n-hexyloxy)-2H-chromeno[2,3-d]pyrimidine-2,4(3H)-dione]",< 1000 nM
6,"COCCCCOc1ccc2cc3c(=O)[nH]c(=O)nc-3oc2c1Cl [compound 66, 9-chloro-8-(4-methoxybutoxy)-2H-chromeno[2,3-d]pyrimidine-2,4(3H)-dione]",< 1000 nM
7,"COc1ccc2cc3c(=O)[nH]c(=S)nc-3oc2c1 [compound 8, 8-methoxy-2-thioxo-2H-chromeno[2,3-d]pyrimidin-4(3H)-one]",< 500 nM
8,COCCCCOc1cc2oc3nc(=O)[nH]c(=O)c-3cc2cc1Cl [compound 69],< 1000 nM
9,"COc1ccc2oc3nc(=O)[nH]c(=O)c-3cc2c1 [compound 10, 7-methoxy-2H-chromeno[2,3-d]pyrimidine-2,4(3H)-dione]",< 1000 nM
10,"CCCCn1c(=O)nc2oc3cc(OCC)ccc3cc-2c1=O [compound 24, 3-(n-butyl)-8-ethoxy-2H-chromeno[2,3-d]pyrimidine-2,4(3H)-dione]",< 1000 nM
11,COCCOCCOc1cc2oc3nc(=O)[nH]c(=O)c-3cc2cc1F [compound 65],< 1000 nM
12,COCCOCCOc1ccc2cc3c(=O)[nH]c(=O)nc-3oc2c1F [compound 63],< 1000 nM
13,CC(C)(C)CCOc1ccc2cc3c(=O)[nH]c(=O)nc-3oc2c1Cl [compound 41],< 500 nM
14,COCCCCOc1ccc2cc3c(=O)[nH]c(=O)nc-3oc2c1 [compound 67],< 1000 nM
15,"CCOc1cc2oc3nc(=O)[nH]c(=O)c-3cc2cc1F [compound 28, 8-ethoxy-7-fluoro-2H-chromeno[2,3-d]pyrimidine-2,4(3H)-dione]",< 500 nM
16,CC(C)CCOc1cc2oc3nc(=O)[nH]c(=O)c-3cc2cc1F [compound 33],< 500 nM
17,CCCCCOc1ccc2cc3c(=O)[nH]c(=O)nc-3oc2c1Cl [compound 39],< 500 nM
18,COCCCCOc1ccc2cc3c(=O)[nH]c(=O)nc-3oc2c1F [compound 68],< 1000 nM
19,O=C(O)CCCOc1ccc2cc3c(=O)[nH]c(=O)nc-3oc2c1Cl [compound 55],< 5000 nM
20,CC(C)COc1ccc2cc3c(=O)[nH]c(=O)nc-3oc2c1F [compound 48],< 500 nM
21,CC(C)CCOc1ccc2cc3c(=O)[nH]c(=O)nc-3oc2c1Cl [compound 40],< 500 nM
22,CC(=O)OCCCCCCOc1ccc2cc3c(=O)[nH]c(=O)nc-3oc2c1Cl [compound 58],< 5000 nM
23,COCCOCCOc1cc2oc3nc(=O)[nH]c(=O)c-3cc2cc1Cl [compound 64],< 1000 nM
24,"COc1ccc2cc3c(=O)[nH]c(=O)nc-3oc2c1 [compound 6, 8-methoxy-2H-chromeno[2,3-d]pyrimidine-2,4(3H)-dione]",< 1000 nM
25,CC(C)CCCOc1ccc2cc3c(=O)[nH]c(=O)nc-3oc2c1F [compound 47],< 1000 nM
26,COCCOCCCOc1ccc2cc3c(=O)[nH]c(=O)nc-3oc2c1F [compound 73],< 1000 nM
27,CC(=O)OCCCOc1ccc2cc3c(=O)[nH]c(=O)nc-3oc2c1Cl [compound 59],< 5000 nM
28,"O=c1[nH]c(=S)nc2oc3cc(O)ccc3cc1-2 [compound 16, 8-hydroxy-2-thioxo-2H-chromeno[2,3-d]pyrimidin-4(3H)-one]",< 500 nM
29,CCCCOc1ccc2cc3c(=O)[nH]c(=O)nc-3oc2c1 [compound 50],< 1000 nM

# Results, then the molecule that gave them:
row,IC50,SMILES
1,< 1000 nM,"CCOc1ccc2cc3c(=O)[nH]c(=O)nc-3oc2c1Cl [compound 22, 9-chloro-8-ethoxy-2H-chromeno[2,3-d]pyrimidine-2,4(3H)-dione]"
2,< 1000 nM,"CCCc1cc2oc3nc(=O)[nH]c(=O)c-3cc2cc1Cl [compound 25, 7-chloro-8-propyl-2H-chromeno[2,3-d]pyrimidine-2,4(3H)-dione]"
3,< 5000 nM,"O=C(O)CCCCCOc1ccc2cc3c(=O)[nH]c(=O)nc-3oc2c1Cl [compound 53, 6-((9-chloro-2,4-dioxo-3,4-dihydro-2H-chromeno[2,3-d]pyrimidin-8-yl)oxy)hexanoic acid]"
4,< 1000 nM,CC(=O)OCCCCOc1ccc2cc3c(=O)[nH]c(=O)nc-3oc2c1 [compound 51]
5,< 500 nM,CC(C)(C)CCOc1cc2oc3nc(=O)[nH]c(=O)c-3cc2cc1F [compound 34]
6,< 1000 nM,COCCCCOc1cc2oc3nc(=O)[nH]c(=O)c-3cc2cc1F [compound 70]
7,< 1000 nM,"CCOc1ccc2cc3c(=O)[nH]c(=O)nc-3sc2c1 [compound 49, 8-ethoxy-2H-thiochromeno[2,3-d]pyrimidine-2,4(3H)-dione]"
8,< 500 nM,"COc1ccc2oc3nc(=S)[nH]c(=O)c-3cc2c1 [compound 15, 7-methoxy-2-thioxo-2H-chromeno[2,3-d]pyrimidin-4(3H)-one]"
9,< 500 nM,CCCCCCCOc1cc2oc3nc(=O)[nH]c(=O)c-3cc2cc1F [compound 32]
10,< 2000 nM,"COc1cc(Cl)cc2cc3c(=O)[nH]c(=S)nc-3oc12 [compound 7, 7-chloro-9-methoxy-2-thioxo-2H-chromeno[2,3-d]pyrimidin-4(3H)-one]"
11,< 500 nM,CCCCCCOc1cc2oc3nc(=O)[nH]c(=O)c-3cc2cc1F [compound 31]
12,< 5000 nM,O=C(O)COc1ccc2cc3c(=O)[nH]c(=O)nc-3oc2c1Cl [compound 56]
13,< 500 nM,CCCCCCOc1cc2oc3nc(=O)[nH]c(=O)c-3cc2cc1Cl [compound 37]
14,< 2000 nM,"CCOc1cccc2cc3c(=O)[nH]c(=O)nc-3oc12 [compound 2, 9-ethoxy-2H-chromeno[2,3-d]pyrimidine-2,4(3H)-dione]"
15,< 500 nM,CCCCOc1ccc2cc3c(=O)[nH]c(=O)nc-3oc2c1Cl [compound 43]
16,< 2000 nM,"COc1cccc2cc3c(=O)[nH]c(=O)nc-3oc12 [compound 1, 9-methoxy-2H-chromeno[2,3-d]pyrimidine-2,4(3H)-dione]"

row,IC50,SMILES
1,< 1000 nM,"Cc1ccc2cc3c(=O)[nH]c(=O)nc-3oc2c1 [compound 12, 8-methyl-2H-chromeno[2,3-d]pyrimidine-2,4(3H)-dione]"
2,< 1000 nM,"CCCOc1cc2oc3nc(=O)[nH]c(=O)c-3cc2cc1Cl [compound 20, 7-chloro-8-propoxy-2H-chromeno[2,3-d]pyrimidine-2,4(3H)-dione]"
3,< 1000 nM,"CCOc1ccc2cc3c(=O)[nH]c(=O)nc-3oc2c1 [compound 13, 8-ethoxy-2H-chromeno[2,3-d]pyrimidine-2,4(3H)-dione]"
4,< 500 nM,CC(C)COc1cc2oc3nc(=O)[nH]c(=O)c-3cc2cc1Cl [compound 38]
5,< 500 nM,CCCCCCOc1ccc2cc3c(=O)[nH]c(=O)nc-3oc2c1Cl [compound 44]
6,< 2000 nM,"COc1cc(Br)cc2cc3c(=O)[nH]c(=O)nc-3oc12 [compound 4, 7-bromo-9-methoxy-2H-chromeno[2,3-d]pyrimidine-2,4(3H)-dione]"
7,< 1000 nM,COCCOCCOc1ccc2cc3c(=O)[nH]c(=O)nc-3oc2c1Cl [compound 62]
8,< 500 nM,CCCCCCCOc1ccc2cc3c(=O)[nH]c(=O)nc-3oc2c1Cl [compound 42]
9,< 500 nM,"Cc1ccc2cc3c(=O)[nH]c(=S)nc-3oc2c1 [compound 17, 8-methyl-2-thioxo-2H-chromeno[2,3-d]pyrimidin-4(3H)-one]"
10,< 1000 nM,"COCCOCCCOc1cc2oc3nc(=O)[nH]c(=O)c-3cc2cc1F [compound 75, 7-fluoro-8-(3-(2-methoxyethoxy)propoxy)-2H-chromeno[2,3-d]pyrimidine-2,4(3H)-dione]"
11,< 1000 nM,COCCOCCCOc1ccc2cc3c(=O)[nH]c(=O)nc-3oc2c1 [compound 71]
12,< 1000 nM,"CCCOc1ccc2cc3c(=O)[nH]c(=O)nc-3oc2c1 [compound 19, 8-propoxy-2H-chromeno[2,3-d]pyrimidine-2,4(3H)-dione]"
13,< 5000 nM,"O=c1nc2oc3ccccc3cc-2c(=O)[nH]1 [compound 9, 2H-chromeno[2,3-d]pyrimidine-2,4(3H)-dione]"
14,< 500 nM,CCCCCCOc1ccc2cc3c(=O)[nH]c(=O)nc-3oc2c1F [compound 46]
15,< 1000 nM,"O=c1nc2oc3cc(O)ccc3cc-2c(=O)[nH]1 [compound 11, 8-hydroxy-2H-chromeno[2,3-d]pyrimidine-2,4(3H)-dione]"
